Source: patent US11279744B2, “Neuropeptide Y fragment capable of releasing hematopoietic stem cells into blood and treating osteoporosis” (Kyungpook National University Industry-Academic Cooperation …, priority 2017, dated 2022)
No end group written: not given here.

How the values were obtained:
[1] = tested on: hematopoietic stem cell adhesion factors (Sdf-1a, KitI, Angpt1) present in osteoblasts; experiment: expression of hematopoietic stem cell adhesion factors in osteoblasts, real-time quantitative PCR; assay type: cell-based, mouse; details: 10 nM peptide for 3 days; compared to osteoblasts (control) not treated with peptides; fold change
Protocol: All mice used in the experiment were 6 to 8 weeks old mice, C57BL/6 mice, and purchased from Jackson Laboratory (Bar Harbor, Me., USA). NPY (21-28) (SEQ ID NO: 1), NPY (24-31) (SEQ ID NO: 2), NPY (29-36) (SEQ ID NO: 3), NPY D25 (21-28) (SEQ ID NO: 4), NPY D26 (21-28) (SEQ ID NO: 5), NPY D25, 26 (21-28) (SEQ ID NO: 6), NPY (21-36) (Osteopep2) (SEQ ID NO: 7) were prepared from Anygen. Full length NPY (SEQ ID NO: 8) was purchased from Bachem. 10 nM of each peptide was diluted in each medium and injected for in vitro experiments. The NPY D^25(21-28) refers to a peptide in which arginine, the fifth amino acid of the amino acid sequence of NPY (21-28), is modified to D-type, the NPY D^26(21-28) refers to a peptide in which the sixth amino acid histidine is modified to D-form, and the D^25,26(21-28) refers to a peptide in which both the fifth and sixth amino acids are modified to D-form, respectively.
Four to six weeks old C57BL/6 mice were sacrificed after anesthesia, and then tibias and femurs were dissected. Bone marrow was harvested from tibias and femurs and single cell suspensions were obtained using a 40 μm cell strainer (Becton-Dickinson LAβware, Franklin Lakes, N.J.). Approximately […] were dispensed into 75-cm 2 flasks containing mesenchymal stem cells Stimulatory Supplements with antibiotics (Stem Cell Technologies, Inc) and MesenCult™ MSCBasal medium. The cells were incubated for 1 week and further incubated for 3 weeks with StemXVivo Osteogenic/Adipogenic Base Media (R & D systems) supplemented with StemXVivo Osteogenic supplement (20×) and penicillin-streptomycin (100×) for differentiation into osteoblasts.
Real-time quantitative PCR was used to measure expression levels of hematopoietic stem cell adhesion factors (Sdf-1a, KitI, Angpt1) present in osteoblasts. Total RNA was extracted from cell eluate and bone marrow cells using the RNeasy Plus mini kit (Qiagen, Korea, Ltd), and cDNAs were synthesized from 5 μg total RNA using a kit in Clontech (Mountain View, Calif.). In addition, using a Corbett research RG-6000 real-time PCR instrument, Real-time quantitative PCR was performed at 95° C. for 10 minutes; at 95° C., for 10 seconds; at 58° C., for 15 seconds; at 72° C. for 20 seconds as one cycle, and 40 cycles were repeated.
First, bone marrow was harvested from 4 to 6 weeks old C57BL6 mice, and mesenchymal stem cells (BM-MSCs) in bone marrow were collected, and then cultured for 3 weeks in osteoblast differentiation induction medium for the differentiation into osteoblasts. After 28 days, each peptide was treated with 10 nM for 3 days, and bone cells were collected and examined for expression levels of three adhesion factors by real-time quantitative PCR. Osteopep2 and its parent NPY were used as positive controls.

[2] = tested on: osteoclasts in bone marrow; experiment: TRAP staining of osteoclasts in bone marrow of osteoporosis animal models; assay type: in vivo, mouse; details: OVX mice, 50 μg/kg i.p. twice a day for 4 weeks; compared to PBS
Protocol: (§1) To make an osteoporosis model, 10-18 12 weeks old female mice per group underwent ovarian ablation. A week later, 50 μg/kg of NPY(21-28), NPY D^25(21-28), NPY D^26(21-28), NPY D^25,26(21-28), Osteopep2, NPY and 100 μl of PBS(Gibco) were intraperitoneally administered twice a day for 4 weeks at 12 hour intervals. Alendronate (Sigma), used as a competitive drug, was intraperitoneally administered once a week for 4 weeks at a dose of 50 μg/kg. As a control group, only Sham model of osteoporosis was performed by subcutaneous dissection of female mouse. Mice were placed in experimental groups using the Block randomization method, and all mouse experiments were approved through the Kyungpook National University Institutional Animal Care and Use Committee.
The femurs were separated from the mice and fixed in 4% paraformaldehyde for 24 hours, and tissue was decalcified in 10% EDTA for 5 weeks. It was then dehydrated with a series of diluted alcohols, paraffinized, and prepared into […] paraffin sections.
For TRAP staining, sections were deparaffinized, stained with 1.33 mM Fast Red Violet LB Salt (Sigma-Aldrich) in 50 mM sodium acetate (pH 5.0) containing 225 μM Naphthol AS-MX phosphate (Sigma-Aldrich, St Louis, Mo., USA), 0.84% N, N-dimethylformamide (Sigma-Aldrich) and 50 mM sodium tartrate, and incubated for 30 minutes. After incubation, the sections were washed with distilled water and counterstained with 1% methyl green.
Histomorphometric analysis was performed using the OsteoMeasure program (Extensive interactive Bone Histomorphometry Analysis System).
After the last administration at 4 weeks of NPY (21-28), the femurs were separated from the mice and the number of osteoclasts in the bone marrow was measured by TRAP staining.
After the last administration at 4 weeks of NPY D^25(21-28), NPY D^26(21-28), and NPY D^25,26(21-28), the femurs were separated from the mice and the number of osteoclasts in the bone marrow was measured by TRAP staining.

[3] = tested on: animal models of osteoporosis; experiment: Micro CT bone density in animal models of osteoporosis; assay type: in vivo, mouse; details: OVX mice, 50 μg/kg i.p. twice a day for 4 weeks; femur microCT; compared to PBS
Protocol: as §1, with “Committee. The femurs were separated from the mouse and refrigerated in 80% ethanol, and in order to measure change of bone density, the bone volume/total volume and trabecular thickness were measured by analyzing the area between 0.7 mm and 2.3 mm from the growth plate baseline with the Quantum FX microCT Imaging System. Femurs were separated from mice after the last administration of NPY (21-28) at 4 weeks. To determine the change of bone density, bone density (bone volume/total volume) and bone tissue thickness (trabecular thickness) were measured with the Quantum FX microCT Imaging System. Femurs were separated from mice after the last administration of NPY D^25(21-28), NPY D^26(21-28), and NPY D^25,26(21-28) at 4 weeks. To determine the change of bone density, bone density (bone volume/total volume) and bone tissue thickness (trabecular thickness) were measured with the Quantum FX microCT Imaging System.” for “Committee.”

With “NPY (24-31): recombinant peptide consisting of eight amino acids of NPY, SEQ ID NO: 2 (LRHYINLI; synthetic neuropeptide Y fragment (24-31))” the “expression levels of Sdf-1a, KitI, and Angpt1 in osteoblasts” value [1] was “decreased only in osteoblasts treated with NPY (21-28)”.

With “NPY: full length neuropeptide Y purchased from Bachem, used as positive control [reference compound]” the “number of TRAP positive osteoclasts in bone marrow (Number of osteoclast/Bone surface)” value [2] was “reduced”, the “osteoclast surface (Osteoclast surface/Bone surface)” value [2] was “reduced” and the “bone tissue thickness (trabecular thickness)” value [3] was “increased”. For the same substance, the “percentage of bone density (BV/TV)” value [3] was “increased”.

“NPY (29-36): recombinant peptide consisting of eight amino acids of NPY, SEQ ID NO: 3 (NLITRQRY; ends and bridges not checked)” was tested, and the “expression levels of Sdf-1a, KitI, and Angpt1 in osteoblasts” value [1] was “decreased only in osteoblasts treated with NPY (21-28)”.
